Consider 12 compounds from US9771376B2 (GENENTECH, INC., priority 2000, dated 2017).

One series addresses human NaV1.7 (Homo sapiens (Human), UniProt Q15858). The series can be described thus: Patch voltage clamp electrophysiology assay, NaV1.7. The following applies: inactivated state; HEK-293 cells stably expressing NaV1.7 with β1 subunit; held at −60 mV; read-out: Human 1.7 EP (IC50 μM). Type of series: cell-based.
The target in a further series is human NaV1.5 (Homo sapiens (Human), UniProt Q14524). The series can be described thus: Patch voltage clamp electrophysiology assay, NaV1.5. Conditions: read-out: Human 1.5 EP IC50 μM; inactivated state; HEK-293 cells stably expressing NaV1.5 with β1 subunit; held at −60 mV.

human NaV1.7, sequence (Q15858 other isoform, or with tags, fused parts or gaps): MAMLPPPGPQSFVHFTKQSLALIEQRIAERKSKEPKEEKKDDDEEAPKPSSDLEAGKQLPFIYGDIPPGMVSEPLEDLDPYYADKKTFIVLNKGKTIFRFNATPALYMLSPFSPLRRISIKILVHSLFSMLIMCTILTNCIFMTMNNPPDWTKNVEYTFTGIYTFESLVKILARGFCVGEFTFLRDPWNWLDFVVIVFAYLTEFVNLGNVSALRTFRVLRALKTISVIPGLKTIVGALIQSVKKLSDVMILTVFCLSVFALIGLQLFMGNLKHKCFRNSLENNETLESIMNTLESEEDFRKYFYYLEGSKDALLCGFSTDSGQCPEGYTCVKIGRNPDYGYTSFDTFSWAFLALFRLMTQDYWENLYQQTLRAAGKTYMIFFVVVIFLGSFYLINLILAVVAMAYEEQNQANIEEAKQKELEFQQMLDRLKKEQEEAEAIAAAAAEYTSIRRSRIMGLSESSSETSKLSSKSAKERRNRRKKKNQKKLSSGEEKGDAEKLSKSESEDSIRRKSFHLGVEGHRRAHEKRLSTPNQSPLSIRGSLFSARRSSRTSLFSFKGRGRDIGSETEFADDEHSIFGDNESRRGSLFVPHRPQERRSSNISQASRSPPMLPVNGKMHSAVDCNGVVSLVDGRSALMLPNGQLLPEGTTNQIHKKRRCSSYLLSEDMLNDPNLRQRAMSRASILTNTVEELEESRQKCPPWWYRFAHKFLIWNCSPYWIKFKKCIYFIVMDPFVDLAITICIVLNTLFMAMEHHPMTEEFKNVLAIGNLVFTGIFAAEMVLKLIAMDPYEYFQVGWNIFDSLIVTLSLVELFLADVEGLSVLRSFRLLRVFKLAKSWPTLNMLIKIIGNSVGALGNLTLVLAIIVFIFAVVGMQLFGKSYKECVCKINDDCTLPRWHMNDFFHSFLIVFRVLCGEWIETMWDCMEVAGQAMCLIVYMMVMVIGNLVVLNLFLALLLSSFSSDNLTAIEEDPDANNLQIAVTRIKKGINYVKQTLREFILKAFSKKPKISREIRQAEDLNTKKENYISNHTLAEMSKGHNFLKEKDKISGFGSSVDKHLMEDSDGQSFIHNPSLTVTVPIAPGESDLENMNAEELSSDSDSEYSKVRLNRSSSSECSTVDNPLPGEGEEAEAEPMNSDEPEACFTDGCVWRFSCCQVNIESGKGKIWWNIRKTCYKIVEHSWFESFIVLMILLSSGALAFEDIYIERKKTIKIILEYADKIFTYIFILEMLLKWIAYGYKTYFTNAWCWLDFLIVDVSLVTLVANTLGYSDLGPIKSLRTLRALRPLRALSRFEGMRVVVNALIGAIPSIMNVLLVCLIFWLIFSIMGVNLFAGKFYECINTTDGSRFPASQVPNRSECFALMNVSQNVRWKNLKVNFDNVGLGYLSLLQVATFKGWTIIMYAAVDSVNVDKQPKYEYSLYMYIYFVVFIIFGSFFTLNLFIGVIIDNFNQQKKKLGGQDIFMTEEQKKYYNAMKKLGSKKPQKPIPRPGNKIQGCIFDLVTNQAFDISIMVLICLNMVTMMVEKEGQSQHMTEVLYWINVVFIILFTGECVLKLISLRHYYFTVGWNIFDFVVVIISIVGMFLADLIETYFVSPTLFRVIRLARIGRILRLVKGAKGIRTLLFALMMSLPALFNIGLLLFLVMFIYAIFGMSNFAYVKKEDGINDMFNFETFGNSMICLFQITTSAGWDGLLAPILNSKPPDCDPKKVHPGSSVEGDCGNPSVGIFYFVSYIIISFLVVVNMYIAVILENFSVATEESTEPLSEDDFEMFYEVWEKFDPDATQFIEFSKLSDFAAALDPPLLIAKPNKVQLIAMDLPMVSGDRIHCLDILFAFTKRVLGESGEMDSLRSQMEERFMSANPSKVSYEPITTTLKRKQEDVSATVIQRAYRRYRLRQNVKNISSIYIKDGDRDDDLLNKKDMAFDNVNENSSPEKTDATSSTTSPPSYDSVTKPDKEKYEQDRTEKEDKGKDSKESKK
human NaV1.7, sequence (Q07699 19-218 partner): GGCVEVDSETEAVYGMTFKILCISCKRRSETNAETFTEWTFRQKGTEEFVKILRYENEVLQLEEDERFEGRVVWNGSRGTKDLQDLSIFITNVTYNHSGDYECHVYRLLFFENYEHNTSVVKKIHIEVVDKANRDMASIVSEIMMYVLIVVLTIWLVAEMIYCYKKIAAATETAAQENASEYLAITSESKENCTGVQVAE

The IC50 is the concentration that inhibits the measured activity by half. With `CC1(C)C2CCC1(C)C(Oc1cc(F)c(C(=O)NS(C)(=O)=O)cc1Cl)C2` (stereo not drawn) [Example 15, 5-chloro-2-fluoro-N-(methylsulfonyl)-4-((exo-1,7,7-trimethylbicyclo[2.2.1]heptan-2-yl)oxy)benzamide], the IC50 on human NaV1.7 was 0.171 µM.

Regarding “4-(2-(adamantan-1-yl)ethoxy)-3-chloro-N-(methylsulfonyl)benzamide [Example 13]”, at human NaV1.7, the IC50 is 0.123 µM.

In the case of “5-chloro-2-fluoro-N-(methylsulfonyl)-4-((1-(trifluoromethyl)cyclopropyl)-methoxy)benzamide [Example 36]”, on human NaV1.7, the IC50 came out at 0.0077 µM.

On to “4-(adamantan-1-ylmethoxy)-5-chloro-N-(N,N-dimethylsulfamoyl)-2-fluorobenzamide [Example 28]”, for which the concentration for half-maximal inhibition (IC50) on human NaV1.7 was 2.25 µM.

Turning to “5-chloro-4-(3-cyclohexylpropoxy)-N-(N,N-dimethylsulfamoyl)-2-fluorobenzamide [Example 82]”, the IC50 at human NaV1.7 was found to be 0.0416 µM.

Consider “4-(1-(adamantan-1-yl)ethoxy)-5-chloro-2-fluoro-N-(methylsulfonyl)benzamide [Example 19]”, for which the IC50 at human NaV1.7 came to 0.0386 µM.

Turning to `CN(C)S(=O)(=O)NC(=O)c1cc(Cl)c(OCC23CC4CC(CC(F)(C4)C2)C3)cc1F` [Example 86, 5-chloro-N-(N N-dimethylsulfamoyl)-2-fluoro-4-((3-fluoroadamantan-1-yl)methoxy)benzamide], at human NaV1.7, the IC50 is 0.00131 µM.

Turning to “4-(adamantan-1-ylmethoxy)-5-chloro-2-fluoro-N-(methylsulfonyl)benzamide [Example 8]”, on human NaV1.5, the half-inhibitory concentration (IC50) is 1.07 µM.

In the case of “5-Chloro-2-fluoro-N-(methylsulfonyl)-4-((2,2,3,3-tetramethylcyclopropyl)-methoxy)benzamide [Example 34]”, on human NaV1.7, the IC50 came out at 0.0658 µM.

For the compound `CN(C)S(=O)(=O)NC(=O)c1cc(Cl)c(OC2CCC3(CCCCC3)CC2)cc1F` [Example 79], on human NaV1.7, the IC50 was determined as 0.0854 µM.

For `CS(=O)(=O)NC(=O)c1cc(Cl)c(OC2[C@@H]3CC4C[C@H]2CC(Cl)(C4)C3)cc1F` (stereo partly drawn) [Example 25, 5-chloro-4-(((1R,2r,3S,5s,7s)-5-chloroadamantan-2-yl)oxy)-2-fluoro-N-(methylsulfonyl)benzamide], the IC50 on human NaV1.7 turned out to be 0.027 µM.

In the case of “4-(bicyclo[2.2.1]heptan-2-yloxy)-5-chloro-2-fluoro-N-(methylsulfonyl)-benzamide [Example 145]”, the IC50 on human NaV1.7 was 0.0036 µM.
